Measurements: patent US20140221499A1, “NOVEL RODENT CONTROL AGENTS AND USES THEREOF” (priority 2011, published 2014)

Tests used:
[1] = test system: mouse olfactory sensory neurons; experiment: Confocal calcium imaging of olfactory sensory neurons in tissue slices; assay type: cell-based
Experimental: The mammalian olfactory system encodes odor identity using combinations of olfactory receptors (11). […] Here, we used a confocal imaging strategy to record cytosolic calcium transients of single sensory neurons in real time. Viability of analyzed neurons was determined after odor exposures by KCl-induced depolarization.
Confocal calcium imaging of olfactory sensory neurons in tissue slices. Recordings were performed as described (Spehr M, et al. (2006) Essential role of the main olfactory system in social recognition of major histocompatibility complex peptide ligands. J Neurosci 26(7):1961-1970) with the following modifications. For calcium sensitive dye loading, slices of olfactory epithelium were incubated (30 min, 4° C.) in HEPES solution (in mM: 145 NaCl, 5 KCl, 1 CaCl2, 1 MgCl2, 10 HEPES; pH=7.3) containing Fluo-4/AM (2 μM; Molecular Probes). Slices were transferred to a recording chamber (Slice Mini Chamber, Luigs & Neumann, Ratingen, Germany) and visualized using a Leica DM6000CFS confocal fixed stage upright microscope (Leica Microsystems, Mannheim, Germany) equipped with an apochromatic water immersion objective (HC X APO L20x/1.0 W) and infrared-optimized differential interference contrast (DIC) optics. Slices were anchored via stainless steel wires with 0.1 mm lycra threads and continuously superfused with HEPES-buffered solution. Changes in cytosolic calcium were monitored over time at 1.0 Hz frame rate. Stimulus application as well as solution exchange during inter-stimulus intervals was achieved by a custom-made, pressure-driven focal application device consisting of a software-controlled valve bank connected to a 7-in-1 ‘perfusion pencil’. Rhodamine application controlled for uniform flow and even stimulus application throughout the epithelial sensory surface. Offline analysis of time-lapse experiments was performed using LAS-AF software (Leica). All cells in a given field of view were marked as individual regions of interest (ROIs), and the relative fluorescence intensity for each ROI was calculated and processed as a function of time.

[2] = biological target: T1, mTAAR7f (Mus musculus, UniProt Q5QD08); experiment: CRE-SEAP reporter gene assay in HEK293 cells transfected with mTAAR7f; assay type: cell-based; design: Full Taar coding regions were cloned into pcDNA3.1; expressed in transfected cells; host or cells: HEK293; conditions: FIG. 11B, not the mutant mTAAR7f-SS, functional with or without 'Rho tag', EC50 ± s.e.m., 4-parameter Hill equation
T1 sequence (Q5QD08 1-358): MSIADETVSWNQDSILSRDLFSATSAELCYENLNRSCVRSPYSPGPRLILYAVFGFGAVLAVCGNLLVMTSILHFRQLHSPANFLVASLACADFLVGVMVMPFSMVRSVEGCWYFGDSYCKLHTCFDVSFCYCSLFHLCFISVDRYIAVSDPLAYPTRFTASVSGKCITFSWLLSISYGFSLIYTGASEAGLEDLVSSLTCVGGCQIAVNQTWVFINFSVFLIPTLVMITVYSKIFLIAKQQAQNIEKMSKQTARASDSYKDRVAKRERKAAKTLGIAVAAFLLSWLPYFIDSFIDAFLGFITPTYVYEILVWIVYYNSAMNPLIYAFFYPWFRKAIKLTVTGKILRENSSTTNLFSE
Experimental: FIG. 11 illustrates the dose-dependent responses of TAARs to amines. HEK293 cells were cotransfected with plasmids encoding CRE-SEAP and rTAARs (a) or mTAARs (b), incubated with concentrations of ligands indicated, and assayed for reporter activity (triplicates±s.d.). EC50 values (±s.e.m, bottom right) were calculated using SigmaPlot (Systat Software) and a 4-parameter Hill equation.
Chemicals tested for the ability to activate mouse TAARs include those previously described (Liberles, S. D., and Buck, L. B. (2006) A second class of chemosensory receptors in the olfactory epithelium, Nature 442, 645-650), as well as the following mixes (5 μM of each indicated compounds). Mix 1: N,N-dimethyl-cyclohexylamine, N,N-dimethyl-phenylethylamine, creatinine, taurine. […]
Full Taar coding regions were cloned into pcDNA3.1-(Invitrogen) with or without a 5′ DNA extension of 69 bp encoding the first 20 amino acids of bovine rhodopsin followed by a cloning linker ([…]). […] Fluorescence was measured on an EnVision plate reader (Perkin Elmer) and SEAP activity graphed as relative fluorescence of a phosphatase substrate.
Here, we set out to identify agonists for additional mouse and rat TAARs. […] Transfected cells were incubated with test chemicals, and phosphatase activity was quantified with a fluorescent substrate as a reporter for TAAR activation. […]

NCCc1ccccc1 [2-phenylethylamine]
activation of olfactory sensory neurons ([1]; dorsal and ventral olfactory epithelium): activated a subset of KCl-responsive olfactory sensory neurons | 2-phenylethylamine-responsive neurons activated by all four test stimuli ([1]; dorsal olfactory epithelium): 30/52 | 2-phenylethylamine-responsive neurons distinguishing lion and giraffe urine and not responding to benzylamine ([1]; of 2-phenylethylamine-responsive neurons (13/52)): 25% | 2-phenylethylamine-responsive neurons distinguishing lion and giraffe urine and not responding to benzylamine ([1]; of all dorsal KCl-responsive neurons (13/1268)): ~1%

CN(C)C1CCCCC1 [N,N-DIMETHYLCYCLOHEXYLAMINE, N,N-dimethylcyclohexylamine]
EC50 [2]: 440 ± 130 nM
